How the values were obtained:
Assay in all cases: Test of herbicidal activities (greenhouse pot method)
Type in all cases: in vivo
Conditions in all cases: single dose 300 g ai./h, treated before/after germination, 15 days later, greenhouse pot
Setaria viridis = test system: Setaria viridis
Outline: (§1)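 Weeds were sown in soil-filled pots at 15–30 °C and treated once by spray tower at 300 g ai./h, either before emergence or post-emergence at the 2-leaf stage, in three replicates with an untreated control. Symptoms were scored 15 days later into five classes from A (≥90%) to E (<50%).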

Echinochloa crusgalli = test system: Echinochloa crusgalli
Outline: as §1

Chenopodium album = test system: Chenopodium album
Outline: as §1

Digiatria sanguinalis = test system: Digiatria sanguinalis
Outline: as §1

Brassica juncea = test system: Brassica juncea
Outline: as §1

Amaranthus retroflexus = test system: Amaranthus retroflexus
Outline: as §1

Compound: Cc1nn(-c2cc3nc([S+](C)[O-])sc3cc2Br)c(=O)n1C(F)F (stereo not drawn) [Compound 108]
- Herbicidal activity Setaria viridis (inhibition level) (Setaria viridis): B (80 ≦ B < 90%)
- Herbicidal activity Echinochloa crusgalli (inhibition level) (Echinochloa crusgalli): A (90 ≦ A ≦ 100%)
- Herbicidal activity Chenopodium album (inhibition level) (Chenopodium album): E (E < 50%)
- Herbicidal activity Digiatria sanguinalis (inhibition level) (Digiatria sanguinalis): B (80 ≦ B < 90%)
- Herbicidal activity Brassica juncea (inhibition level) (Brassica juncea): A (90 ≦ A ≦ 100%)
- Herbicidal activity Amaranthus retroflexus (inhibition level) (Amaranthus retroflexus): B (80 ≦ B < 90%)

Compound: CC[S+]([O-])c1nc2cc(-n3nc(C)n(C(F)F)c3=O)c(Br)cc2s1 (stereo not drawn) [Compound 109]
- Herbicidal activity Setaria viridis (inhibition level) (Setaria viridis): B (80 ≦ B < 90%)
- Herbicidal activity Echinochloa crusgalli (inhibition level) (Echinochloa crusgalli): A (90 ≦ A ≦ 100%)
- Herbicidal activity Chenopodium album (inhibition level) (Chenopodium album): A (90 ≦ A ≦ 100%)
- Herbicidal activity Digiatria sanguinalis (inhibition level) (Digiatria sanguinalis): B (80 ≦ B < 90%)
- Herbicidal activity Brassica juncea (inhibition level) (Brassica juncea): A (90 ≦ A ≦ 100%)
- Herbicidal activity Amaranthus retroflexus (inhibition level) (Amaranthus retroflexus): B (80 ≦ B < 90%)

Compound: CCC[S+]([O-])c1nc2cc(-n3nc(C)n(C(F)F)c3=O)c(Br)cc2s1 (stereo not drawn) [Compound 110]
- Herbicidal activity Setaria viridis (inhibition level) (Setaria viridis): C (60 ≦ C < 80%)
- Herbicidal activity Echinochloa crusgalli (inhibition level) (Echinochloa crusgalli): A (90 ≦ A ≦ 100%)
- Herbicidal activity Chenopodium album (inhibition level) (Chenopodium album): B (80 ≦ B < 90%)
- Herbicidal activity Digiatria sanguinalis (inhibition level) (Digiatria sanguinalis): B (80 ≦ B < 90%)
- Herbicidal activity Brassica juncea (inhibition level) (Brassica juncea): B (80 ≦ B < 90%)
- Herbicidal activity Amaranthus retroflexus (inhibition level) (Amaranthus retroflexus): B (80 ≦ B < 90%)

Compound: CCOC(=O)C[S+]([O-])c1nc2cc(-n3nc(C)n(C(F)F)c3=O)c(Br)cc2s1 (stereo not drawn) [Compound 111]
- Herbicidal activity Setaria viridis (inhibition level) (Setaria viridis): C (60 ≦ C < 80%)
- Herbicidal activity Echinochloa crusgalli (inhibition level) (Echinochloa crusgalli): A (90 ≦ A ≦ 100%)
- Herbicidal activity Chenopodium album (inhibition level) (Chenopodium album): E (E < 50%)
- Herbicidal activity Digiatria sanguinalis (inhibition level) (Digiatria sanguinalis): C (60 ≦ C < 80%)
- Herbicidal activity Brassica juncea (inhibition level) (Brassica juncea): B (80 ≦ B < 90%)
- Herbicidal activity Amaranthus retroflexus (inhibition level) (Amaranthus retroflexus): A (90 ≦ A ≦ 100%)

Compound: CCCCCC[S+]([O-])c1nc2cc(-n3nc(C)n(C(F)F)c3=O)c(F)cc2s1 (stereo not drawn) [Compound 112]
- Herbicidal activity Setaria viridis (inhibition level) (Setaria viridis): B (80 ≦ B < 90%)
- Herbicidal activity Echinochloa crusgalli (inhibition level) (Echinochloa crusgalli): B (80 ≦ B < 90%)
- Herbicidal activity Chenopodium album (inhibition level) (Chenopodium album): B (80 ≦ B < 90%)
- Herbicidal activity Digiatria sanguinalis (inhibition level) (Digiatria sanguinalis): A (90 ≦ A ≦ 100%)
- Herbicidal activity Brassica juncea (inhibition level) (Brassica juncea): C (60 ≦ C < 80%)
- Herbicidal activity Amaranthus retroflexus (inhibition level) (Amaranthus retroflexus): B (80 ≦ B < 90%)

Compound: CC[S+]([O-])c1nc2cc(-n3nc(C)n(C(F)F)c3=O)c(F)cc2s1 (stereo not drawn) [Compound 113]
- Herbicidal activity Setaria viridis (inhibition level) (Setaria viridis): C (60 ≦ C < 80%)
- Herbicidal activity Echinochloa crusgalli (inhibition level) (Echinochloa crusgalli): B (80 ≦ B < 90%)
- Herbicidal activity Chenopodium album (inhibition level) (Chenopodium album): D (50 ≦ D < 60%)
- Herbicidal activity Digiatria sanguinalis (inhibition level) (Digiatria sanguinalis): C (60 ≦ C < 80%)
- Herbicidal activity Brassica juncea (inhibition level) (Brassica juncea): A (90 ≦ A ≦ 100%)
- Herbicidal activity Amaranthus retroflexus (inhibition level) (Amaranthus retroflexus): B (80 ≦ B < 90%)

Compound: CCCCCC[S+]([O-])c1nc2cc(-n3nc(C)n(C(F)F)c3=O)c(Cl)cc2s1 (stereo not drawn) [Compound 114]
- Herbicidal activity Setaria viridis (inhibition level) (Setaria viridis): B (80 ≦ B < 90%)
- Herbicidal activity Echinochloa crusgalli (inhibition level) (Echinochloa crusgalli): B (80 ≦ B < 90%)
- Herbicidal activity Chenopodium album (inhibition level) (Chenopodium album): A (90 ≦ A ≦ 100%)
- Herbicidal activity Digiatria sanguinalis (inhibition level) (Digiatria sanguinalis): A (90 ≦ A ≦ 100%)
- Herbicidal activity Brassica juncea (inhibition level) (Brassica juncea): A (90 ≦ A ≦ 100%)
- Herbicidal activity Amaranthus retroflexus (inhibition level) (Amaranthus retroflexus): A (90 ≦ A ≦ 100%)

Compound: CC[S+]([O-])c1nc2cc(-n3nc(C)n(C(F)F)c3=O)c(Cl)cc2s1 (stereo not drawn) [Compound 115]
- Herbicidal activity Setaria viridis (inhibition level) (Setaria viridis): B (80 ≦ B < 90%)
- Herbicidal activity Echinochloa crusgalli (inhibition level) (Echinochloa crusgalli): C (60 ≦ C < 80%)
- Herbicidal activity Chenopodium album (inhibition level) (Chenopodium album): D (50 ≦ D < 60%)
- Herbicidal activity Digiatria sanguinalis (inhibition level) (Digiatria sanguinalis): B (80 ≦ B < 90%)
- Herbicidal activity Brassica juncea (inhibition level) (Brassica juncea): A (90 ≦ A ≦ 100%)
- Herbicidal activity Amaranthus retroflexus (inhibition level) (Amaranthus retroflexus): B (80 ≦ B < 90%)

Compound: CCOC(=O)C(C)[S+]([O-])c1nc2cc(-n3nc(C)n(C(F)F)c3=O)c(Br)cc2s1 (stereo not drawn) [Compound 116]
- Herbicidal activity Setaria viridis (inhibition level) (Setaria viridis): B (80 ≦ B < 90%)
- Herbicidal activity Echinochloa crusgalli (inhibition level) (Echinochloa crusgalli): D (50 ≦ D < 60%)
- Herbicidal activity Chenopodium album (inhibition level) (Chenopodium album): B (80 ≦ B < 90%)
- Herbicidal activity Digiatria sanguinalis (inhibition level) (Digiatria sanguinalis): C (60 ≦ C < 80%)
- Herbicidal activity Brassica juncea (inhibition level) (Brassica juncea): A (90 ≦ A ≦ 100%)
- Herbicidal activity Amaranthus retroflexus (inhibition level) (Amaranthus retroflexus): B (80 ≦ B < 90%)

Compound: C=CC[S+]([O-])c1nc2cc(-n3nc(C)n(C(F)F)c3=O)c(Br)cc2s1 (stereo not drawn) [Compound 117]
- Herbicidal activity Setaria viridis (inhibition level) (Setaria viridis): E (E < 50%)
- Herbicidal activity Echinochloa crusgalli (inhibition level) (Echinochloa crusgalli): C (60 ≦ C < 80%)
- Herbicidal activity Chenopodium album (inhibition level) (Chenopodium album): B (80 ≦ B < 90%)
- Herbicidal activity Digiatria sanguinalis (inhibition level) (Digiatria sanguinalis): B (80 ≦ B < 90%)
- Herbicidal activity Brassica juncea (inhibition level) (Brassica juncea): C (60 ≦ C < 80%)
- Herbicidal activity Amaranthus retroflexus (inhibition level) (Amaranthus retroflexus): C (60 ≦ C < 80%)

Compound: CCOC(=O)C(C)[S+]([O-])c1nc2cc(-n3nc(C)n(C(F)F)c3=O)c(F)cc2s1 (stereo not drawn) [Compound 118]
- Herbicidal activity Setaria viridis (inhibition level) (Setaria viridis): C (60 ≦ C < 80%)
- Herbicidal activity Echinochloa crusgalli (inhibition level) (Echinochloa crusgalli): D (50 ≦ D < 60%)
- Herbicidal activity Chenopodium album (inhibition level) (Chenopodium album): B (80 ≦ B < 90%)
- Herbicidal activity Digiatria sanguinalis (inhibition level) (Digiatria sanguinalis): C (60 ≦ C < 80%)
- Herbicidal activity Brassica juncea (inhibition level) (Brassica juncea): D (50 ≦ D < 60%)
- Herbicidal activity Amaranthus retroflexus (inhibition level) (Amaranthus retroflexus): A (90 ≦ A ≦ 100%)

Compound: Cc1nn(-c2cc3nc([S+](C)[O-])sc3cc2F)c(=O)n1C(F)F (stereo not drawn) [Compound 119]
- Herbicidal activity Setaria viridis (inhibition level) (Setaria viridis): C (60 ≦ C < 80%)
- Herbicidal activity Echinochloa crusgalli (inhibition level) (Echinochloa crusgalli): E (E < 50%)
- Herbicidal activity Chenopodium album (inhibition level) (Chenopodium album): B (80 ≦ B < 90%)
- Herbicidal activity Digiatria sanguinalis (inhibition level) (Digiatria sanguinalis): C (60 ≦ C < 80%)
- Herbicidal activity Brassica juncea (inhibition level) (Brassica juncea): E (E < 50%)
- Herbicidal activity Amaranthus retroflexus (inhibition level) (Amaranthus retroflexus): B (80 ≦ B < 90%)

Compound: CCCC[S+]([O-])c1nc2cc(-n3nc(C)n(C(F)F)c3=O)c(F)cc2s1 (stereo not drawn) [Compound 120]
- Herbicidal activity Setaria viridis (inhibition level) (Setaria viridis): B (80 ≦ B < 90%)
- Herbicidal activity Echinochloa crusgalli (inhibition level) (Echinochloa crusgalli): D (50 ≦ D < 60%)
- Herbicidal activity Chenopodium album (inhibition level) (Chenopodium album): B (80 ≦ B < 90%)
- Herbicidal activity Digiatria sanguinalis (inhibition level) (Digiatria sanguinalis): B (80 ≦ B < 90%)
- Herbicidal activity Brassica juncea (inhibition level) (Brassica juncea): A (90 ≦ A ≦ 100%)
- Herbicidal activity Amaranthus retroflexus (inhibition level) (Amaranthus retroflexus): C (60 ≦ C < 80%)

Compound: CCC[S+]([O-])c1nc2cc(-n3nc(C)n(C(F)F)c3=O)c(F)cc2s1 (stereo not drawn) [Compound 121]
- Herbicidal activity Setaria viridis (inhibition level) (Setaria viridis): D (50 ≦ D < 60%)
- Herbicidal activity Echinochloa crusgalli (inhibition level) (Echinochloa crusgalli): E (E < 50%)
- Herbicidal activity Chenopodium album (inhibition level) (Chenopodium album): A (90 ≦ A ≦ 100%)
- Herbicidal activity Digiatria sanguinalis (inhibition level) (Digiatria sanguinalis): C (60 ≦ C < 80%)
- Herbicidal activity Brassica juncea (inhibition level) (Brassica juncea): C (60 ≦ C < 80%)
- Herbicidal activity Amaranthus retroflexus (inhibition level) (Amaranthus retroflexus): D (50 ≦ D < 60%)

Compound: CCOC(=O)CSc1nc2cc(-n3nc(C(F)(F)F)n(C(F)F)c3=O)c(F)cc2s1 [Compound 122]
- Herbicidal activity Setaria viridis (inhibition level) (Setaria viridis): E (E < 50%)
- Herbicidal activity Echinochloa crusgalli (inhibition level) (Echinochloa crusgalli): C (60 ≦ C < 80%)
- Herbicidal activity Chenopodium album (inhibition level) (Chenopodium album): E (E < 50%)
- Herbicidal activity Digiatria sanguinalis (inhibition level) (Digiatria sanguinalis): E (E < 50%)
- Herbicidal activity Brassica juncea (inhibition level) (Brassica juncea): E (E < 50%)
- Herbicidal activity Amaranthus retroflexus (inhibition level) (Amaranthus retroflexus): E (E < 50%)

Compound: C=CCSc1nc2cc(-n3nc(C(F)(F)F)n(C(F)F)c3=O)c(F)cc2s1 [Compound 123]
- Herbicidal activity Setaria viridis (inhibition level) (Setaria viridis): B (80 ≦ B < 90%)
- Herbicidal activity Echinochloa crusgalli (inhibition level) (Echinochloa crusgalli): D (50 ≦ D < 60%)
- Herbicidal activity Chenopodium album (inhibition level) (Chenopodium album): A (90 ≦ A ≦ 100%)
- Herbicidal activity Digiatria sanguinalis (inhibition level) (Digiatria sanguinalis): B (80 ≦ B < 90%)
- Herbicidal activity Brassica juncea (inhibition level) (Brassica juncea): D (50 ≦ D < 60%)
- Herbicidal activity Amaranthus retroflexus (inhibition level) (Amaranthus retroflexus): A (90 ≦ A ≦ 100%)
